# Patent EP4667458A1 (Kanaph Therapeutics Inc., priority 2023, dated 2024)
# What was measured:
# [1] = target: T1, SOS1 (Homo sapiens, UniProt Q07889); assay: SOS-catalyzed nucleotide exchange assay (HTRF, SOS1-mediated GTP loading of KRAS G12D); type: biochemical; details: GST-KRAS G12D, HIS-SOS1cat, EDA-GTP-DY-647P1; compound 128 pM to 10 µM; read-out: SOS-catalyzed nucleotide exchange assay (IC50 range, Grade)
# T1 construct: adding equal amounts of HIS-SOS1cat (160 nM; Cytoskeleton, US); His; purchased Cytoskeleton, US
# T1 sequence (Q07889 564-1049 limits assumed): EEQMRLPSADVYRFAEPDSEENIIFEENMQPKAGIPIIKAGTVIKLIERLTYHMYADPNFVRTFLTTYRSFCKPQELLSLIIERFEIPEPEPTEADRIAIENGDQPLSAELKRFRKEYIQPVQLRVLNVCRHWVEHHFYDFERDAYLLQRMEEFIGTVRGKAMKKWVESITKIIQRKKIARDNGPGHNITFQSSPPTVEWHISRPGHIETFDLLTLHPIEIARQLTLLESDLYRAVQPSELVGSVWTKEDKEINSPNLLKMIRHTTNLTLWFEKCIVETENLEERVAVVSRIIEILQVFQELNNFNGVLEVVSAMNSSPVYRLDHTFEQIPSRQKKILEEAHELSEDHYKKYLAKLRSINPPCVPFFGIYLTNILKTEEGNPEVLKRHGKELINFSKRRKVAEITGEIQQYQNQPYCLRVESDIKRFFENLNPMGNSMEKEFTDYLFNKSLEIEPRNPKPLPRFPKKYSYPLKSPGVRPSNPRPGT
# Procedure, shortened: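 SOS1cat (HIS-tagged) preincubated 10 min at room temperature with compound (128 pM-10 µM), then GST-KRAS G12D with anti-GST terbium added; GTP loading tracked as HTRF with a DY-647P1 GTP analogue after 30 min, buffer HEPES pH 7.4. GEF-free wells for normalization; IC50 derived.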
# [2] = target: T2, KRAS^G12C::SOS1 (Homo sapiens, UniProt Q07889); assay: KRAS G12C::SOS1 protein-protein interaction (PPI) inhibition assay (HTRF binding kit)
# T2 sequence (Q07889 1-1333): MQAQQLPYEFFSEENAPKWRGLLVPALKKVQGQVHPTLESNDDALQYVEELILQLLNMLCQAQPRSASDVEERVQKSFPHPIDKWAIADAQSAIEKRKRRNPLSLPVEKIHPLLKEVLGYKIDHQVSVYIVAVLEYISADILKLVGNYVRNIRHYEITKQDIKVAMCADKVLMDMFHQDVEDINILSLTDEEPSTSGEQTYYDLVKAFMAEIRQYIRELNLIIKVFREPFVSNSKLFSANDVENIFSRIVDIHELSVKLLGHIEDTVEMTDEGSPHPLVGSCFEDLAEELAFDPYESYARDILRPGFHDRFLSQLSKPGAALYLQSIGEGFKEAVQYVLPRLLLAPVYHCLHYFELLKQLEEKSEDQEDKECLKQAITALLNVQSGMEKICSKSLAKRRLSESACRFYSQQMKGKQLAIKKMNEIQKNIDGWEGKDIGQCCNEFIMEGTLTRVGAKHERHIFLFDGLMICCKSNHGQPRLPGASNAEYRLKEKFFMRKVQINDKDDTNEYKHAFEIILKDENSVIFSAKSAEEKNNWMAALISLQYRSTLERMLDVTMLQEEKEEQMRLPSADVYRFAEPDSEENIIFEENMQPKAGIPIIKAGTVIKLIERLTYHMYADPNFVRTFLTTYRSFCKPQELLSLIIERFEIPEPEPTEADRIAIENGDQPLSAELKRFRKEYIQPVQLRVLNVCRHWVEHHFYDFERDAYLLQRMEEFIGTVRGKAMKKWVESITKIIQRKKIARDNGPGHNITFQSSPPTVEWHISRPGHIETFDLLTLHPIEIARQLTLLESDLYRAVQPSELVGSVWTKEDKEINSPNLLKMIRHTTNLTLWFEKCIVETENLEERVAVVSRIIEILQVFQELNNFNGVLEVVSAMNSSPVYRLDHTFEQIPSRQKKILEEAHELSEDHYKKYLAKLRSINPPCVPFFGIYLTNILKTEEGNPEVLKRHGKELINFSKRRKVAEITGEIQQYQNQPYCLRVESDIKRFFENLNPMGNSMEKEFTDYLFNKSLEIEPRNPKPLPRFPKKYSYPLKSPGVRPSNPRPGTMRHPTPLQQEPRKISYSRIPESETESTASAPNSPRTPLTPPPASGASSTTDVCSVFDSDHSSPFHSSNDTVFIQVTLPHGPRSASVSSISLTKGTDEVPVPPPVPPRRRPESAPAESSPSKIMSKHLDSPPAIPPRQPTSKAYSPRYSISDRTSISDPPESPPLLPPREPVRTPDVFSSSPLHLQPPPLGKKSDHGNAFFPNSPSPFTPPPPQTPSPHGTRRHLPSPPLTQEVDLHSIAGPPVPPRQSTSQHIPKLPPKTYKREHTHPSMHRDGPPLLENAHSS
Compound,IC50 [1] [nM],IC50 [2] [nM]
"C[C@@H](NC(=O)c1ccc(=O)n(-c2ccccc2F)n1)c1cccc(I)c1F [Example 144, N-[(1R)-1-(2-fluoro-3-iodo-phenyl)ethyl]-1-(2-fluorophenyl)-6-oxo-pyridazine-3-carboxamide]",1000 to 10000,< 1000
"C[C@@H](NC(=O)c1ccc(=O)n(-c2cccnc2F)c1)c1cc(N)cc(C(F)(F)F)c1 [Example 148, N-[(1R)-1-[3-amino-5-(trifluoromethyl)phenyl]ethyl]-1-(2-fluoro-3-pyridyl)-6-oxo-pyridine-3-carboxamide]",> 10000,> 10000
"COc1ccc(-n2nc(C(=O)N[C@H](C)c3cccc(C(F)(F)CO)c3F)ccc2=O)c(OC)c1 [Example 151, N-[(1R)-1-[3-(1,1-difluoro-2-hydroxy-ethyl)-2-fluoro-phenyl]ethyl]-1-(2,4-dimethoxyphenyl)-6-oxo-pyridazine-3-carboxamide]",< 1000,< 1000
"COc1ccc(-n2nc(C(=O)N[C@H](C)c3cc(N)cc(C(F)(F)F)c3)ccc2=O)c(F)c1 [Example 152, N-[(1R)-1-[3-amino-5-(trifluoromethyl)phenyl]ethyl]-1-(2-fluoro-4-methoxy-phenyl)-6-oxo-pyridazine-3-carboxamide]",< 1000,< 1000
"COc1ccc(-n2nc(C(=O)N[C@H](C)c3cc(N)cc(C(F)(F)F)c3)ccc2=O)c(OC)c1 [Example 153, N-[(1R)-1-[3-amino-5-(trifluoromethyl)phenyl]ethyl]-1-(2,4-dimethoxyphenyl)-6-oxo-pyridazine-3-carboxamide]",< 1000,< 1000
"C[C@@H](NC(=O)c1ccc(=O)n(-c2cccc3cc[nH]c23)n1)c1cc(N)cc(C(F)(F)F)c1 [Example 155, N-[(1R)-1-[3-amino-5-(trifluoromethyl)phenyl]ethyl]-1-(1H-indole-7-yl)-6-oxo-pyridazine-3-carboxamide]",1000 to 10000,< 1000
"C[C@@H](NC(=O)c1ccc(=O)n(-c2ccccc2CO)n1)c1cc(N)cc(C(F)(F)F)c1 [Example 156, N-[(1R)-1-[3-amino-5-(trifluoromethyl)phenyl]ethyl]-1-[2-(hydroxymethyl)phenyl]-6-oxo-pyridazine-3-carboxamide]",1000 to 10000,1000 to 10000
"COCc1ccccc1-n1nc(C(=O)N[C@H](C)c2cc(N)cc(C(F)(F)F)c2)ccc1=O [Example 157, N-[(1R)-1-[3-amino-5-(trifluoromethyl)phenyl]ethyl]-1-[2-(methoxymethyl)phenyl]-6-oxo-pyridazine-3-carboxamide]",1000 to 10000,1000 to 10000
"C[C@@H](NC(=O)c1ccc(=O)n(-c2cccc(F)c2)n1)c1cc(N)cc(C(F)(F)F)c1 [Example 158, N-[(1R)-1-[3-amino-5-(trifluoromethyl)phenyl]ethyl]-1-(3-fluorophenyl)-6-oxo-pyridazine-3-carboxamide]",< 1000,< 1000
"(R)-1-([1,1'-biphenyl]-4-yl)-N-(1-(3-amino-5-(trifluoromethyl)phenyl)ethyl)-6-oxo-1,6-dihydropyridazine-3-carboxamide [Example 24]",1000 to 10000,

# Second part, the compound after the results:
IC50 [1] [nM],IC50 [2] [nM],Compound
< 1000,,"C[C@@H](NC(=O)c1ccc(=O)n(C2=CCOCC2)n1)c1cc(N)cc(C(F)(F)F)c1 [Example 128, N-[(1R)-1-[3-amino-5-(trifluoromethyl)phenyl]ethyl]-1-(3,6-dihydro-2H-pyran-4-yl)-6-oxo-1,6-dihydropyridazine-3-carboxamide]"
< 1000,,"CC(=O)Nc1cccc(-n2cc(C(=O)N[C@H](C)c3cc(N)cc(C(F)(F)F)c3)ccc2=O)c1 [Example 129, N-[(1R)-1-[3-amino-5-(trifluoromethyl)phenyl]ethyl]-1-(3-acetamidophenyl)-6-oxo-1,6-dihydropyridine-3-carboxamide]"
< 1000,,"C[C@@H](NC(=O)c1ccc(=O)n(-c2cccc(NC(=O)C3CC3)c2)c1)c1cc(N)cc(C(F)(F)F)c1 [Example 130, N-[(1R)-1-[3-amino-5-(trifluoromethyl)phenyl]ethyl]-1-(3-cyclopropaneamidophenyl)-6-oxo-1,6-dihydropyridine-3-carboxamide]"
< 1000,,"CNCc1ccc(Cl)cc1-c1cnc([C@@H](C)NC(=O)c2ccc(=O)n(-c3ccccc3F)n2)s1 [Example 137, N-[(1R)-1-[5-[5-chloro-2-(methylaminomethyl)phenyl]thiazol-2-yl]ethyl]-1-(2-fluorophenyl)-6-oxo-pyridazine-3-carboxamide]"
< 1000,,"CNCc1ccc(Cl)cc1-c1cnc([C@@H](C)NC(=O)c2ccc(=O)n(-c3ccccc3F)c2)s1 [Example 138, N-[(1R)-1-[5-[5-chloro-2-(methylaminomethyl)phenyl]thiazol-2-yl]ethyl]-1-(2-fluorophenyl)-6-oxo-pyridine-3-carboxamide]"
< 1000,< 1000,"COc1ccc(-n2cc(C(=O)N[C@H](C)c3cccc(C(F)(F)CO)c3F)ccc2=O)c(F)c1OC [Example 140, N-[(1R)-1-[3-(1,1-difluoro-2-hydroxy-ethyl)-2-fluoro-phenyl]ethyl]-1-(2-fluoro-3,4-dimethoxy-phenyl)-6-oxo-pyridine-3-carboxamide]"
< 1000,< 1000,"C[C@@H](NC(=O)c1ccc(=O)n(-c2cccnc2F)n1)c1cccc(C(F)(F)CO)c1F [Example 141, N-[(1R)-1-[3-(1,1-difluoro-2-hydroxy-ethyl)-2-fluorophenyl]ethyl]-1-(2-fluoro-3-pyridyl)-6-oxo-pyridazine-3-carboxamide]"
< 1000,< 1000,"CC(C)Oc1ccc(-n2nc(C(=O)N[C@H](C)c3cc(N)cc(C(F)(F)F)c3)ccc2=O)cc1 [Example 142, N-[(1R)-1-[3-amino-5-(trifluoromethyl)phenyl]ethyl]-1-(4-isopropoxyphenyl)-6-oxo-pyridazine-3-carboxamide]"
< 1000,< 1000,"C[C@@H](NC(=O)c1ccc(=O)n(-c2ccccc2OC(F)F)n1)c1cccc(C(F)(F)CO)c1F [Example 143, N-[(1R)-1-[3-(1,1-difluoro-2-hydroxy-ethyl)-2-fluoro-phenyl]ethyl]-1-[2-(difluoromethoxy)phenyl]-6-oxo-pyridazine-3-carboxamide]"
< 1000,< 1000,"C[C@@H](NC(=O)c1ccc(=O)n(-c2cccc(-c3ccnn3C(F)F)c2)n1)c1cc(N)cc(C(F)(F)F)c1 [Example 149, N-[(1R)-1-[3-amino-5-(trifluoromethyl)phenyl]ethyl]-1-[3-[2-(difluoromethyl)pyrazol-3-yl]phenyl]-6-oxo-pyridazine-3-carboxamide]"
< 1000,< 1000,"C[C@@H](NC(=O)c1ccc(=O)n(-c2cccc(-c3ccnn3C(F)F)c2)n1)c1cccc(C(F)(F)CO)c1F [Example 150, N-[(1R)-1-[3-(1,1-difluoro-2-hydroxy-ethyl)-2-fluoro-phenyl]ethyl]-1-[3-[2-(difluoromethyl)pyrazol-3-yl]phenyl]-6-oxo-pyridazine-3-carboxamide]"
